This is an account of results in patent US10004701B2, “Methods and compositions for treating infection” (UNIVERSITY OF ROCHESTER, priority 2012, dated 2018).

Assay in all cases: AK assay 384-well format, Prestwick library screening
In experiment [1] the test system is E. coli. The class given is cell-based, Escherichia coli. Particulars: 50 μM final drug concentration; for fold induction at 50 µM: Escherichia coli, 3 h.
In experiment [2] the test system is E. cloacae. In kind it is cell-based, Enterobacter cloacae. Particulars: 50 μM final drug concentration; for fold induction at 50 µM: Enterobacter cloacae, 3 h.
In experiment [3] the test system is P. aeruginosa. The class given is cell-based, Pseudomonas aeruginosa. As to conditions: 50 μM final drug concentration; for fold induction at 50 µM: Pseudomonas aeruginosa, 3 h.
The subject of experiment [4] is S. aureus strain USA300-0114. In kind it is cell-based, Staphylococcus aureus. Particulars: 50 μM final drug concentration; for fold induction at 50 µM: Staphylococcus aureus, USA300, 3 h.
In experiment [5] the test system is K. pneumoniae. In kind it is cell-based, Klebsiella pneumoniae. As to conditions: 50 μM final drug concentration; for fold induction at 50 µM: Klebsiella pneumoniae, 3 h.
In experiment [6] the test system is A. baumannii strain 98-37-09. The class given is cell-based, Acinetobacter baumannii. Particulars: 50 μM final drug concentration; for fold induction at 50 µM: Acinetobacter baumannii, 983709, 3 h.
For experiment [7], the system named is E. faecium. The class given is cell-based, Enterococcus faecium. Particulars: 50 μM final drug concentration; for fold induction at 50 µM: Enterococcus faecium, 3 h.
The mark [8] stands for this setting: 384-well format, cutoff for positive-scoring molecules 3-fold increase, read-out: AK-based Prestwick Library Screening Results, E. coli (increase in extracellular AK activity).
Where [9] appears, read: 384-well format, cutoff for positive-scoring molecules 3-fold increase, read-out: AK-based Prestwick Library Screening Results, E. cloacae (increase in extracellular AK activity).
The mark [10] stands for this setting: 384-well format, cutoff for positive-scoring molecules 3-fold increase, read-out: AK-based Prestwick Library Screening Results, P. aeruginosa (increase in extracellular AK activity).
Setting [11] is: 384-well format, cutoff for positive-scoring molecules 3-fold increase, read-out: AK-based Prestwick Library Screening Results, S. aureus (increase in extracellular AK activity).
Setting [12] is: 384-well format, cutoff for positive-scoring molecules 3-fold increase, read-out: AK-based Prestwick Library Screening Results, K. pneumoniae (increase in extracellular AK activity).
The mark [13] stands for this setting: 384-well format, cutoff for positive-scoring molecules 3-fold increase, read-out: AK-based Prestwick Library Screening Results, A. baumannii (increase in extracellular AK activity).
Where [14] appears, read: 384-well format, cutoff for positive-scoring molecules 3-fold increase, read-out: AK-based Prestwick Library Screening Results, E. faecium (increase in extracellular AK activity).
Where [15] appears, read: planktonic, cutoff for positive-scoring molecules 3-fold increase.

Counter-ions that a name gives are not always drawn. Like-named read-outs stand apart in the source and are kept apart here.

In the case of `CC1(C)S[C@@H]2[C@H](NC(=O)Cc3ccccc3)C(=O)N2[C@H]1C(=O)O` [Benzylpenicillin sodium], the fold induction at 50 µM in experiment [1] (planktonic E. coli, positive cutoff 3-fold increase, read-out: AK-based Prestwick library screening result, E. coli (fold increase in extracellular AK activity)) was determined as 11.3; in experiment [2] (planktonic E. cloacae, positive cutoff 3-fold increase, read-out: AK-based Prestwick library screening result, E. cloacae (fold increase in extracellular AK activity)), 1.2; in experiment [3] (planktonic P. aeruginosa, positive cutoff 3-fold increase, read-out: AK-based Prestwick library screening result, P. aeruginosa (fold increase in extracellular AK activity)), 0.7; in experiment [4] (planktonic S. aureus, positive cutoff 3-fold increase, read-out: AK-based Prestwick library screening result, S. aureus (fold increase in extracellular AK activity)) it was 0.8; in experiment [5] (planktonic K. pneumoniae, positive cutoff 3-fold increase, read-out: AK-based Prestwick library screening result, K. pneumoniae (fold increase in extracellular AK activity)), 0.6; in experiment [6] (planktonic A. baumannii, positive cutoff 3-fold increase, read-out: AK-based Prestwick library screening result, A. baumannii (fold increase in extracellular AK activity)), 2.9. In addition, in experiment [7] (planktonic E. faecium, positive cutoff 3-fold increase, read-out: AK-based Prestwick library screening result, E. faecium (fold increase in extracellular AK activity)), the fold induction at 50 µM amounted to 1.7.

Consider `CCNC1(c2cccs2)CCCCC1=O.Cl` (stereo not shown) [Tiletamine hydrochloride], for which the “AK-based Prestwick library screening result, E. coli (fold increase in extracellular AK activity)” value in experiment [1] (planktonic E. coli, […]) stood at 1.2. Besides, in experiment [2] (planktonic E. cloacae, […]), the “AK-based Prestwick library screening result, E. cloacae (fold increase in extracellular AK activity)” value was 1.4. The “AK-based Prestwick library screening result, P. aeruginosa (fold increase in extracellular AK activity)” value in experiment [3] (planktonic P. aeruginosa, […]) is reported as 1.1. Further, the “AK-based Prestwick library screening result, S. aureus (fold increase in extracellular AK activity)” value in experiment [4] (planktonic S. aureus, […]) amounted to 1.1. Besides, the “AK-based Prestwick library screening result, K. pneumoniae (fold increase in extracellular AK activity)” value in experiment [5] (planktonic K. pneumoniae, […]) is on record as 1.1. Moreover, the “AK-based Prestwick library screening result, A. baumannii (fold increase in extracellular AK activity)” value in experiment [6] (planktonic A. baumannii, […]) is listed as 1.6. For the same molecule, the “AK-based Prestwick library screening result, E. faecium (fold increase in extracellular AK activity)” value in experiment [7] (planktonic E. faecium, […]) is recorded as 1.0.

`CCCCNc1ccc(C(=O)OCCOCCOCCOCCOCCOCCOCCOCCOCCOC)cc1` [Benzonatate]: the fold induction at 50 µM worked out at 0.7 in experiment [1] (setting [8]); 0.7 in experiment [2] (setting [9]); 0.6 in experiment [3] (setting [10]); 0.7 in experiment [4] (setting [11]); 0.6 in experiment [5] (setting [12]); 0.7 in experiment [6] (setting [13]). In addition, the fold induction at 50 µM in experiment [7] (setting [14]) was 0.8.

Turning to `CN(C)CCC=C1c2ccccc2COc2ccccc21` [Doxepin hydrochloride], the fold induction at 50 µM in experiment [1] (setting [8]) is 1.1; in experiment [2] (setting [9]), 1; in experiment [3] (setting [10]), 1.1; in experiment [4] (setting [11]), 0.9; in experiment [5] (setting [12]), 0.8; in experiment [6] (setting [13]), 0.9. Further, the fold induction at 50 µM in experiment [7] (setting [14]) came to 1.

For the molecule `Cc1ccc(C(=O)c2ccc(CC(=O)O)n2C)cc1` [Tolmetin sodium salt dihydrate], the fold induction at 50 µM in experiment [1] (cutoff for positive-scoring molecules 3-fold increase, read-out: AK-based Prestwick Library Screening Results, E. coli (fold increase in extracellular AK activity)) was 0.9; in experiment [2] (cutoff for positive-scoring molecules 3-fold increase, read-out: AK-based Prestwick Library Screening Results, E. cloacae (fold increase in extracellular AK activity)) it was 2; in experiment [3] (cutoff for positive-scoring molecules 3-fold increase, read-out: AK-based Prestwick Library Screening Results, P. aeruginosa (fold increase in extracellular AK activity)), 1; in experiment [4] (cutoff for positive-scoring molecules 3-fold increase, read-out: AK-based Prestwick Library Screening Results, S. aureus (fold increase in extracellular AK activity)) it was 0.9; in experiment [5] (cutoff for positive-scoring molecules 3-fold increase, read-out: AK-based Prestwick Library Screening Results, K. pneumoniae (fold increase in extracellular AK activity)), 0.6; in experiment [6] (cutoff for positive-scoring molecules 3-fold increase, read-out: AK-based Prestwick Library Screening Results, A. baumannii (fold increase in extracellular AK activity)) it was 0.8. Further, the fold induction at 50 µM in experiment [7] (cutoff for positive-scoring molecules 3-fold increase, read-out: AK-based Prestwick Library Screening Results, E. faecium (fold increase in extracellular AK activity)) is 0.8.

`Nc1nc2ccc(OC(F)(F)F)cc2s1` [Riluzole hydrochloride]: the fold induction at 50 µM in experiment [1] (setting [8]) amounted to 0.2; in experiment [2] (setting [9]), 0.5; in experiment [3] (setting [10]) it was 0.2; in experiment [4] (setting [11]) it was 0.2; in experiment [5] (setting [12]) it was 0.2; in experiment [6] (setting [13]), 0.2. Besides, in experiment [7] (setting [14]), the fold induction at 50 µM stood at 0.3.

Turning to `CO[C@@H]1C=C2CCN(C)[C@@H]2C2c3cc4c(cc3C(=O)OC21)OCO4.O=[N+]([O-])O` (stereo partly shown) [Ungerine nitrate], the “AK-based Prestwick Library Screening Results, E. coli (fold increase in extracellular AK activity)” value in experiment [1] (setting [15]) is 1.3. The “AK-based Prestwick Library Screening Results, E. cloacae (fold increase in extracellular AK activity)” value in experiment [2] (setting [15]) turned out to be 1.4. Also, the “AK-based Prestwick Library Screening Results, P. aeruginosa (fold increase in extracellular AK activity)” value in experiment [3] (setting [15]) turned out to be 1.1. In addition, in experiment [4] (setting [15]), the “AK-based Prestwick Library Screening Results, S. aureus (fold increase in extracellular AK activity)” value was 1.2. In addition, the “AK-based Prestwick Library Screening Results, K. pneumoniae (fold increase in extracellular AK activity)” value in experiment [5] (setting [15]) worked out at 1.0. The “AK-based Prestwick Library Screening Results, A. baumannii (fold increase in extracellular AK activity)” value in experiment [6] (setting [15]) was 1.1. In addition, the “AK-based Prestwick Library Screening Results, E. faecium (fold increase in extracellular AK activity)” value in experiment [7] (setting [15]) is 1.0.

For the molecule `CC(C)(C)NCC(O)COc1cccc2c1CCC(=O)N2` (stereo not shown) [Carteolol hydrochloride], the fold induction at 50 µM in experiment [1] (planktonic E. coli, cutoff for positive-scoring molecules 3-fold increase, read-out: AK-based Prestwick Library Screening Results, E. coli (increase in extracellular AK activity)) is 1.2; in experiment [2] (planktonic E. cloacae, cutoff for positive-scoring molecules 3-fold increase, read-out: AK-based Prestwick Library Screening Results, E. cloacae (increase in extracellular AK activity)), 1.1; in experiment [3] (planktonic P. aeruginosa, cutoff for positive-scoring molecules 3-fold increase, read-out: AK-based Prestwick Library Screening Results, P. aeruginosa (increase in extracellular AK activity)), 1.1; in experiment [4] (planktonic S. aureus, cutoff for positive-scoring molecules 3-fold increase, read-out: AK-based Prestwick Library Screening Results, S. aureus (increase in extracellular AK activity)), 1.1; in experiment [5] (planktonic K. pneumoniae, cutoff for positive-scoring molecules 3-fold increase, read-out: AK-based Prestwick Library Screening Results, K. pneumoniae (increase in extracellular AK activity)), 0.8; in experiment [6] (planktonic A. baumannii, cutoff for positive-scoring molecules 3-fold increase, read-out: AK-based Prestwick Library Screening Results, A. baumannii (increase in extracellular AK activity)), 1. Further, the fold induction at 50 µM in experiment [7] (planktonic E. faecium, cutoff for positive-scoring molecules 3-fold increase, read-out: AK-based Prestwick Library Screening Results, E. faecium (increase in extracellular AK activity)) came out at 1.

For `Cn1c(=O)c2c(ncn2CCO)n(C)c1=O` [Etofylline], the fold induction at 50 µM stood at 0.8 in experiment [1] (setting [8]); 0.9 in experiment [2] (setting [9]); 0.7 in experiment [3] (setting [10]); 0.8 in experiment [4] (setting [11]); 0.6 in experiment [5] (setting [12]); 0.8 in experiment [6] (setting [13]). Further, the fold induction at 50 µM in experiment [7] (setting [14]) is 1.

On to `Cc1cccc(C)c1N=C1NCCCS1` [Xylazine], for which the fold induction at 50 µM in experiment [1] (planktonic E. coli, […], read-out: AK-based Prestwick Library Screening Results, E. coli (increase in extracellular AK activity)) was 0.8; in experiment [2] (planktonic E. cloacae, […], read-out: AK-based Prestwick Library Screening Results, E. cloacae (increase in extracellular AK activity)) it was 1.4; in experiment [3] (planktonic P. aeruginosa, […], read-out: AK-based Prestwick Library Screening Results, P. aeruginosa (increase in extracellular AK activity)), 0.9; in experiment [4] (planktonic S. aureus, […], read-out: AK-based Prestwick Library Screening Results, S. aureus (increase in extracellular AK activity)), 0.8; in experiment [5] (planktonic K. pneumoniae, […], read-out: AK-based Prestwick Library Screening Results, K. pneumoniae (increase in extracellular AK activity)) it was 0.7; in experiment [6] (planktonic A. baumannii, […], read-out: AK-based Prestwick Library Screening Results, A. baumannii (increase in extracellular AK activity)), 0.9. Besides, in experiment [7] (planktonic E. faecium, […], read-out: AK-based Prestwick Library Screening Results, E. faecium (increase in extracellular AK activity)), the fold induction at 50 µM is 0.9.
